Measured values published in US20030215462A1, “Use of UGT inhibitors to increase bioavailability” (priority 2001, published 2003).
Several values for one entry are separate records, joined by “and”; a condition that tells them apart may be missing. Equal values may be shown once.

Tests used:
[1] = system: UGT enzymes of pooled human jejunum microsomes; test: Inhibition of 2ME2 glucuronidation (MG1) in pooled human jejunum microsomes; type: biochemical; details: jejunum HJ61, 2ME2 50 μM
Source text: (§1) Compounds were eluted using a binary solvent gradient system where solvent A was dilute phosphoric acid (pH 3) and solvent B was 80:20 acetonitrile-methanol. […] Detection was at 280 nm.

[2] = system: UGT enzymes of human liver microsomes; test: Inhibition of raloxifene glucuronidation (G1, G2) in human liver microsomes; type: biochemical; details: for % of control metabolism (SD, n = 3), raloxifene glucuronide G1 / % of control metabolism (SD, n = 3), raloxifene glucuronide G2: human liver microsomes 250 μg/ml, 15 min
Source text: (§2) Compounds were eluted using a binary solvent gradient system. […] Solvent B was methanol. […] Detection was at 280 nm.

[3] = system: T1, UGT enzymes of human liver microsomes; test: Inhibition of estradiol (E2) glucuronidation in human liver microsomes; type: biochemical; details: liver 032101, E2 50 μM
T1 construct: residual metabolism (% of control), E2-17-β-D-glucuronide; other: liver 032101; residual metabolism (% of control), E2-17-β-D-glucuronide
Source text: as §1

[4] = system: T2, UGT enzymes of human liver microsomes; test: as above; type: biochemical; details: liver 032101, E2 50 μM
T2 construct: residual metabolism (% of control), E2-3-β-D-glucuronide; other: liver 032101; residual metabolism (% of control), E2-3-β-D-glucuronide
Source text: as §1

[5] = biological target: T3, UGT enzymes of human liver microsomes; test: Inhibition of 7-HFC glucuronidation in human liver microsomes; type: biochemical; details: for % of control metabolism (SD, n = 3), 7-HFC glucuronidation: human liver microsomes 100 μg/ml
T3 construct: percentage of control metabolism, 7-HFC glucuronidation; percentage of control metabolism, 7-HFC glucuronidation

[6] = system: UGT enzymes of pooled human jejunum microsomes; test: Inhibition of raloxifene glucuronidation (G1, G2) in pooled human jejunum microsomes; type: biochemical; details: jejunum HJ61; inhibitor 50 μM
Method: as §2
Standardized incubations utilized […] microsomal protein, 1 mM UDPGA and a 30 min incubation time.

UGT1A3 = biological target: T4, UGT1A3 (Homo sapiens, UniProt P35503); test: Inhibition of raloxifene glucuronidation by recombinant UGT1A3 Supersomes; details: for activity at 15 min, 10 µM / activity at 15 min, 25 µM / activity at 15 min, 50 µM: human; for activity at 15 min, 10 µM: inhibitor 10 μM; for activity at 15 min, 25 µM: inhibitor 25 μM; for activity at 15 min, 50 µM: inhibitor 50 μM
T4 sequence (P35503 29-534): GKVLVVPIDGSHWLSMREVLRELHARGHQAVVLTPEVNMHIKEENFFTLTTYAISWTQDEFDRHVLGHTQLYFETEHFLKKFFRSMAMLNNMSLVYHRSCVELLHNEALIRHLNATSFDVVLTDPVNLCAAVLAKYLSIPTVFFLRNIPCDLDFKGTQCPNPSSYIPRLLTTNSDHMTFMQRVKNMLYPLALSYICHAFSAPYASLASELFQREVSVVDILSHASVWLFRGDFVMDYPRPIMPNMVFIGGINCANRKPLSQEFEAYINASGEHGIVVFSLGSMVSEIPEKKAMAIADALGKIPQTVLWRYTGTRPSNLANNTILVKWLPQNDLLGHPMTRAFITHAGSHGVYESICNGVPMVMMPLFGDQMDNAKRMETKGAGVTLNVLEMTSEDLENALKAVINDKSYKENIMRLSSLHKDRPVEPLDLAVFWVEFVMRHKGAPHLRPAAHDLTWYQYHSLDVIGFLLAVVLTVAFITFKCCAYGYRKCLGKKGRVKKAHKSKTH
Method: (§3) Compounds were eluted using a binary solvent gradient system. Solvent A was water brought to pH 8 with NH4OH. Solvent B was methanol. Solvent flow rate was 1 ml/min and the column temperature was maintained at 50° C. Detection was at 280 nm. […] The system was then returned to the initial conditions and equilibrated for 3 min.

UGT1A9 = biological target: T5, UGT1A9 (Homo sapiens, UniProt O60656); test: Inhibition of raloxifene glucuronidation by recombinant UGT1A9 Supersomes; details: for activity at 15 min, 50 µM: human, Supersomes with recombinant human UGT1A9, pH 7.5, probe raloxifene 50 μM
T5 sequence (O60656 26-530): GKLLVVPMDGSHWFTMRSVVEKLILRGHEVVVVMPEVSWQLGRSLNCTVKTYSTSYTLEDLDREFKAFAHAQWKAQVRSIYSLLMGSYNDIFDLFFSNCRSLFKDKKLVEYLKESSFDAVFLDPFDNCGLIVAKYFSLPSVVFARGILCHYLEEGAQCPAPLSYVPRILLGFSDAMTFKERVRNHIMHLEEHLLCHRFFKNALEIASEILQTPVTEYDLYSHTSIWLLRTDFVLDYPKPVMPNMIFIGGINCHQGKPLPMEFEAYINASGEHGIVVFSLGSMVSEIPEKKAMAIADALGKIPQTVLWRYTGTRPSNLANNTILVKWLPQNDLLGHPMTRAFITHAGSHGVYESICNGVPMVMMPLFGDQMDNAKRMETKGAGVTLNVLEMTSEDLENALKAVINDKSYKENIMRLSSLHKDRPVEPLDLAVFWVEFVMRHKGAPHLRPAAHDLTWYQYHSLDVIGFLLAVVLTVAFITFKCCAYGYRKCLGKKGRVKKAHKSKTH
Method: as §3

[7] = inhibitor 10 μM, raloxifene 50 μM
[8] = inhibitor 25 μM, raloxifene 50 μM
[9] = inhibitor 50 μM, raloxifene 50 μM
[10] = inhibitor 100 μM, raloxifene 50 μM
[11] = liver lot 032101, inhibitor 50 μM
[12] = liver lot 062101, inhibitor 50 μM
[13] = liver lot 083000, inhibitor 50 μM
[14] = raloxifene 50 μM, inhibitor 10 μM
[15] = raloxifene 50 μM, inhibitor 25 μM
[16] = raloxifene 50 μM, inhibitor 50 μM
[17] = raloxifene 50 μM, inhibitor 100 μM
[18] = Supersomes with recombinant human UGT1A3, pH 7.5, probe raloxifene 50 μM, formation of glucuronide G1, % of control metabolism, raloxifene G1, UGT1A3
[19] = Supersomes with recombinant human UGT1A3, pH 7.5, probe raloxifene 50 μM, formation of glucuronide G2, % of control metabolism, raloxifene G2, UGT1A3
[20] = recombinant UGT1A3 Supersomes, pH 7.5, probe raloxifene 50 μM (formation of glucuronide G1), Inhibition of raloxifene glucuronidation, G1, UGT1A3, G1, raloxifene 50 μM, 250 μg/ml Supersomes, 1 mM UDPGA, 15 min
[21] = recombinant UGT1A3 Supersomes, pH 7.5, probe raloxifene 50 μM (formation of glucuronide G2), Inhibition of raloxifene glucuronidation, G2, UGT1A3, G2, raloxifene 50 μM, 250 μg/ml Supersomes, 1 mM UDPGA, 15 min

Structure (SMILES): CCCCCCCCOC(=O)c1cc(O)c(O)c(O)c1 [Octyl gallate]
- residual metabolism (% of control), 2ME2 MG1 ([1]; inhibitor 50 μM): 121 (7) %
- residual metabolism (% of control), 2ME2 MG1 ([1]; inhibitor 100 μM): 58 (3) %
- % of control metabolism (SD, n = 3), raloxifene glucuronide G1 [2, 7]: 68 (3) %
- % of control metabolism (SD, n = 3), raloxifene glucuronide G1 [2, 8]: 48 (6) %
- % of control metabolism (SD, n = 3), raloxifene glucuronide G1 [2, 9]: 37 (2) %
- % of control metabolism (SD, n = 3), raloxifene glucuronide G1 [2, 10]: 31 (3) %
- % of control metabolism (SD, n = 3), raloxifene glucuronide G2 [2, 7]: 75 (8) %
- % of control metabolism (SD, n = 3), raloxifene glucuronide G2 [2, 8]: 59 (5) %
- % of control metabolism (SD, n = 3), raloxifene glucuronide G2 [2, 9]: 46 (3) %
- % of control metabolism (SD, n = 3), raloxifene glucuronide G2 [2, 10]: 52 (7) %
- % of control metabolism, raloxifene G1 [2, 11]: 45 (1) %
- % of control metabolism, raloxifene G2 [2, 11]: 59 (3) %
- % of control metabolism, raloxifene G1 [2, 12]: 55 (5) %
- % of control metabolism, raloxifene G2 [2, 12]: 45 (6) %
- % of control metabolism, raloxifene G1 [2, 13]: 37 (2) %
- % of control metabolism, raloxifene G2 [2, 13]: 46 (3) %
- % of control metabolism, raloxifene G1 [2, 14]: 68 (3) %
- % of control metabolism, raloxifene G2 [2, 14]: 75 (8) %
- % of control metabolism, raloxifene G1 [2, 15]: 48 (6) %
- % of control metabolism, raloxifene G2 [2, 15]: 59 (5) %
- % of control metabolism, raloxifene G1 [2, 16]: 37 (2) %
- % of control metabolism, raloxifene G2 [2, 16]: 46 (3) %
- % of control metabolism, raloxifene G1 [2, 17]: 31 (3) %
- % of control metabolism, raloxifene G2 [2, 17]: 52 (7) %
- residual metabolism (% of control), E2-17-β-D-glucuronide ([3]; inhibitor 50 μM): 88 (1) %
- residual metabolism (% of control), E2-17-β-D-glucuronide ([3]; inhibitor 100 μM): 74 (2) %
- residual metabolism (% of control), E2-3-β-D-glucuronide ([4]; inhibitor 50 μM): 53 (1) %
- residual metabolism (% of control), E2-3-β-D-glucuronide ([4]; inhibitor 100 μM): 33 (2) %
- IC50 ([5]; 7-HFC 50 μM, 1 mM UDPGA, 15 min): ~75 µM
- percentage of control metabolism, 7-HFC glucuronidation ([5]; inhibitor 25 μM): 86 (1) %
- % of control metabolism (SD, n = 3), 7-HFC glucuronidation ([5]; inhibitor 25 μM, 7-HFC 50 μM, 15 min): 86 (1) %
- percentage of control metabolism, 7-HFC glucuronidation ([5]; inhibitor 50 μM): 65 (0) %
- % of control metabolism (SD, n = 3), 7-HFC glucuronidation ([5]; inhibitor 50 μM, 7-HFC 50 μM, 15 min): 65 (0) %
- percentage of control metabolism, 7-HFC glucuronidation ([5]; inhibitor 100 μM): 26 (1) % and 29 (1) %
- % of control metabolism (SD, n = 3), 7-HFC glucuronidation ([5]; inhibitor 100 μM, 7-HFC 50 μM, 15 min): 26 (1), % and 29 (1) %
- percentage of control metabolism, 7-HFC glucuronidation ([5]; inhibitor 200 μM): 6 (0) %
- % of control metabolism (SD, n = 3), 7-HFC glucuronidation ([5]; inhibitor 200 μM, 7-HFC 50 μM, 15 min): 6 (0) %
- percentage of control metabolism, 7-HFC glucuronidation ([5]; inhibitor 500 μM): 0.1 (0.1) %
- % of control metabolism (SD, n = 3), 7-HFC glucuronidation ([5]; inhibitor 500 μM, 7-HFC 50 μM, 15 min): 0.1 (0.1) %
- % of control metabolism, raloxifene G1 [6]: 80 (3) %
- % of control metabolism, raloxifene G2 [6]: 137 (9) %
- inhibition of raloxifene glucuronidation, in words (UGT1A3; UGT1A3): excellent inhibitor
- activity at 15 min, 10 µM (UGT1A3; [18]): 61%
- activity at 15 min, 25 µM (UGT1A3; [18]): 28%
- activity at 15 min, 50 µM (UGT1A3; [18]): 12%
- activity at 15 min, 10 µM (UGT1A3; [19]): 60%
- activity at 15 min, 25 µM (UGT1A3; [19]): 31%
- activity at 15 min, 50 µM (UGT1A3; [19]): 13%
- activity at 15 min, 10 µM (UGT1A3; [20]): 61%
- activity at 15 min, 25 µM (UGT1A3; [20]): 28%
- activity at 15 min, 50 µM (UGT1A3; [20]): 12%
- activity at 15 min, 10 µM (UGT1A3; [21]): 60%
- activity at 15 min, 25 µM (UGT1A3; [21]): 31%
- activity at 15 min, 50 µM (UGT1A3; [21]): 13%
- inhibition of raloxifene glucuronidation, in words (UGT1A9; UGT1A9): very poor inhibitor
- activity at 15 min, 50 µM (UGT1A9; formation of glucuronide G1, % of control metabolism, raloxifene G1, UGT1A9, inhibitor 50 μM): 84%
- activity at 15 min, 50 µM (UGT1A9; formation of glucuronide G2, % of control metabolism, raloxifene G2, UGT1A9, inhibitor 50 μM): 70%
- Inhibition of raloxifene glucuronidation, UGT1A9, second line per inhibitor (G2) (UGT1A9; second line (G2, metabolite not given), inhibitor 50 μM, raloxifene 50 μM, 250 μg/ml Supersomes, 1 mM UDPGA, 15 min): 70 (4)
